Experiment [1] has as its system BLM-induced idiopathic pulmonary fibrosis (IPF) mouse model. Put plainly: Body weight changes in BLM-induced IPF mouse model. Format: in vivo, ICR mice. The note with it: tracheal spray once daily for 7 days, BLM-induced IPF mice. How it is done: (§1) Animal Model Preparation: The peptide powder was dissolved in pre-cooled saline and filtered to remove bacteria, then a spray needle was attached to a micro-syringe to aspirate the peptide solution. A total of 56 ICR mice were anesthetized by intramuscular injection of avertin. After anesthesia, the mice were fixed supine, the tongue was gently pulled, the vocal folds were exposed with a laryngoscope, the trachea was gently inserted, and the nebulized solution was rapidly pushed and injected. Each mouse was administered 100 μL of a 0.4 mg/mL bleomycin solution via tracheal spray, with the treatment performed once. Seven days after modeling, the mice were randomly grouped for ShSPI treatment based on weight loss scores. An additional 8 mice received the vehicle (normal saline) and were designated as the sham group.
(§2) A total of 48 suitable mice were randomly divided into five groups: the model control group (MC), the positive control group (PC), and the ShSPI low-dose groups (1 mg/kg), medium-dose groups (2 mg/kg), and high-dose groups (4 mg/kg).
Drug Administration: Starting on day 7 post-modeling, ShSPI peptide treatment groups were anesthetized with intramuscular avertin and received tracheal spray administration of the peptide. […]
Body Weight Monitoring: The body weight of the mice was monitored and recorded from the modeling phase to the end of treatment (a total of two weeks).

Experiment [2] relates to MCP-1, IL-6, IL-1β, IFN-γ, IL-10, TGF-β mRNA in lung tissue. Put plainly: RT-qPCR of inflammatory factor mRNA in lung tissue of IPF mice. The class given is in vivo, ICR mice. Particulars: tracheal spray once daily for 7 days, BLM-induced IPF mice. The procedure: as §1, §2
Drug Administration: Starting on day 7 post-modeling, ShSPI peptide treatment groups were anesthetized with intramuscular avertin and received tracheal spray administration of the peptide. The low-dose group was treated with 1 mg/kg ShSPI peptide, the medium-dose group with 2 mg/kg, and the high-dose group with 4 mg/kg. The positive control group, without anesthesia, received 200 mg/kg pirfenidone (IPFD) via oral gavage. All groups were treated once daily for seven consecutive days.
The left lobe of the lung was collected from each mouse for total RNA extraction using RNAiso Plus, following the manufacturer’s instructions. The extracted RNA was quantified using a UV spectrophotometer. One microgram of total RNA was reverse transcribed into cDNA using a first-strand cDNA synthesis kit, following the provided protocol. Quantitative PCR (qPCR) was performed on a QuantStudio system using 2× SYBR Green qPCR Master Mix, and β-actin served as the internal control. The PCR reaction utilized a two-step protocol: 95 °C for 15 s, followed by 60 °C for 60 s, repeated for 40 cycles. Gene expression levels were calculated using the 2^−ΔΔCt method.

Where a SMILES comes first, the peptide text is derived from it. Bridges are numbered along the chain shown (N, C = ends).

Turning to `CC[C@H](C)[C@@H]1NC(=O)[C@H](C)NC(=O)[C@@H]2CCCN2C(=O)[C@@H]2CSSC[C@H](NC(=O)[C@H](CO)NC(=O)[C@H](CC(N)=O)NC(=O)[C@H](CO)NC(=O)[C@H](Cc3ccc(O)cc3)NC(=O)[C@H](CCSC)NC(=O)[C@H](CCCNC(=N)N)NC(=O)CNC(=O)[C@H](Cc3ccccc3)NC(=O)[C@H](CCC(=O)O)NC(=O)[C@H](CC(=O)O)NC(=O)[C@H](Cc3ccccc3)NC(=O)[C@H](C(C)C)NC(=O)[C@@H]3CCCN3C(=O)[C@H](CCC(N)=O)NC(=O)[C@H](Cc3ccc(O)cc3)NC1=O)C(=O)N[C@@H](CCC(=O)O)C(=O)N[C@@H](CCSC)C(=O)N[C@@H](CCC(N)=O)C(=O)N[C@@H](CCCNC(=N)N)C(=O)N[C@@H](C)C(=O)N[C@@H](CCCNC(=N)N)C(=O)N[C@H](C(=O)N[C@@H](CC(C)C)C(=O)N[C@@H](CCCNC(=N)N)C(=O)NCC(=O)O)CSSC[C@H](N)C(=O)N1CCC[C@H]1C(=O)N[C@@H](CCC(N)=O)C(=O)N[C@@H](C(C)C)C(=O)N2` [ShSPI] (H-CPQVCPAIYQPVFDEFGRMYSNSCEMQRARCLRG-OH; disulfide 1-31, 5-24; N-terminus and C-terminus assumed), the body weight recovery result is “upward trend, albeit with a slower recovery rate” in experiment [1] (ShSPI low-dose group (1 mg/kg)); “comparable to that of the positive control group” in experiment [1] (ShSPI medium- and high-dose groups (2 and 4 mg/kg)). Also, in experiment [2] (ShSPI 1–4 mg/kg), the “TGF-β mRNA content in mouse lung tissue” value is listed as “no significant impact”. Moreover, in experiment [2] (ShSPI high dose 4 mg/kg, β-actin control), the “mRNA levels of pro-inflammatory cytokines (MCP-1, IL-6, IL-1β, IFN-γ) in lung tissue” value is “restored these pro-inflammatory cytokine ShSPI mRNA levels to normal”. The “IL-10 mRNA level in lung tissue” value in experiment [2] (ShSPI low dose 1 mg/kg, β-actin control) was “restored the anti-inflammatory cytokine IL-10 mRNA levels to normal”.
